# Experiment: Stability study of venetoclax anhydrate under storage conditions (XRPD before and after storage)
# Type: physicochemical
# Method: (§1) FIG. 6 is representative XRPD overlay of venetoclax anhydrate before storage (bottom), venetoclax anhydrate after storage at 25° C./97% RH (relative humidity) for 7 days (middle), and venetoclax anhydrate after storage at 40° C./75% RH for 7 days (top).
# X-Ray Powder Diffraction patterns were collected on a Bruker AXS C2 GADDS diffractometer using Cu Kα radiation (40 kV, 40 mA), automated XYZ stage, laser video microscope for auto-sample positioning and a HiStar 2-dimensional area detector. X-ray optics consists of a single Göbel multilayer mirror coupled with a pinhole collimator of 0.3 mm.
# The beam divergence, i.e. the effective size of the X-ray beam on the sample, was approximately 4 mm. A θ-θ continuous scan mode was employed with a sample—detector distance of 20 cm which gives an effective 2θ range of 3.2° — 29.7° . Typically the sample would be exposed to the X-ray beam for 120 seconds. The software used for data collection was GADDS for XP/2000 4.1.43 and the data were analysed and presented using Diffrac Plus EVA v15.0.0.0.
# as §1, with “Stability studies of venetoclax anhydrate under two storage conditions were also carried out. FIG.” for “FIG.”, “C/97%” for “C./97%”, “C/75%” for “C./75%”, “(top). […]” for “(top).”
smiles,measurement,setting,value
"CC1(C)CCC(CN2CCN(c3ccc(C(=O)NS(=O)(=O)c4ccc(NCC5CCOCC5)c([N+](=O)[O-])c4)c(Oc4cnc5[nH]ccc5c4)c3)CC2)=C(c2ccc(Cl)cc2)C1 [venetoclax anhydrate, 4-(4-{[2-(4-chlorophenyl)-4,4-dimethylcyclohex-1-en-1-yl]methyl}piperazin-1-yl)-N-({3-nitro-4-[(tetrahydro-2H-pyran-4-ylmethyl)amino]phenyl}sulfonyl)-2-(1H-pyrrolo[2,3-b]pyridine-5-yloxy)benzamide]",time the anhydrate remains stable on storage (XRPD overlay),storage at 25° C/97% RH (relative humidity) for 7 days,at least 7 days
same,time the anhydrate remains stable on storage (XRPD overlay),storage at 40° C/75% RH for 7 days,at least 7 days

# From patent US20220298158A1, “POLYMORPH OF VENETOCLAX AND METHOD FOR PREPARING THE POLYMORPH” (Johnson Matthey Public Limited Company, priority 2019, published 2022)
